# Columns and labels:
# [1] = test system: OVCAR-4; assay: SRB growth screen, ovarian cancer OVCAR-4; conditions: Homo sapiens, OVCAR-4, 48 h
# [2] = test system: HOP-62; conditions: Homo sapiens, HOP-62, 48 h
# [3] = test system: MCF7; assay: SRB growth screen, breast cancer MCF7; conditions: Homo sapiens, MCF7, 48 h, read-out: Log10 LC50 (converted)
# [4] = test system: DU-145; assay: SRB growth screen, prostate cancer DU-145; conditions: Homo sapiens, DU-145, 48 h
# [5] = test system: SN12C; assay: SRB growth screen, renal cancer SN12C; conditions: Homo sapiens, 48 h
# [6] = test system: RXF-393; assay: SRB growth screen, renal cancer RXF-393; conditions: Homo sapiens, RXF 393, 48 h
# [7] = test system: HCC-2998; assay: SRB growth screen, colon cancer HCC-2998; conditions: Homo sapiens, HCC 2998, 48 h
# [8] = test system: UACC-257; assay: SRB growth screen, melanoma UACC-257; conditions: Homo sapiens, UACC-257, 48 h
# [9] = test system: SW-620; assay: SRB growth screen, colon cancer SW-620; conditions: Homo sapiens, SW-620, 48 h
# [10] = test system: K-562; assay: SRB growth screen, leukemia K-562; conditions: Homo sapiens, K562, 48 h
# [11] = test system: IGROV1; assay: SRB growth screen, ovarian cancer IGROV1; conditions: Homo sapiens, IGROV-1, 48 h
# [12] = test system: HT29; assay: SRB growth screen, colon cancer HT29; conditions: Homo sapiens, HT-29, 48 h
# [13] = test system: PC-3; assay: SRB growth screen, prostate cancer PC-3; conditions: Homo sapiens, PC-3, 48 h
# [14] = test system: SR; assay: SRB growth screen, leukemia SR; conditions: Homo sapiens, 48 h
# [15] = test system: LOX-IMVI; assay: SRB growth screen, melanoma LOX-IMVI; conditions: Homo sapiens, 48 h
# [16] = test system: U251; assay: SRB growth screen, CNS cancer U251; conditions: Homo sapiens, U-251, 48 h
# [17] = test system: RPMI-8226; assay: SRB growth screen, leukemia RPMI-8226; conditions: Homo sapiens, RPMI-8226, 48 h
# [18] = test system: T-47D; assay: SRB growth screen, breast cancer T-47D; conditions: Homo sapiens, T47D, 48 h
# [19] = test system: MDA-MB-231/ATCC; assay: SRB growth screen, breast cancer MDA-MB-231/ATCC; conditions: Homo sapiens, MDA-MB-231, 48 h
# [20] = test system: UACC-62; assay: SRB growth screen, melanoma UACC-62; conditions: Homo sapiens, UACC-62, 48 h, read-out: Log10 LC50 (converted)
# [21] = test system: SF-539; assay: SRB growth screen, CNS cancer SF-539; conditions: Homo sapiens, SF-539, 48 h, read-out: Log10 LC50 (converted)
# [22] = test system: SK-MEL-2; assay: SRB growth screen, melanoma SK-MEL-2; conditions: Homo sapiens, SK-MEL-2, 48 h, read-out: Log10 LC50 (converted)
# [23] = test system: UO-31; assay: SRB growth screen, renal cancer UO-31; conditions: Homo sapiens, UO-31, 48 h
# [24] = test system: MDA-MB-435; assay: SRB growth screen, breast cancer MDA-MB-435; assay type: cell-based; conditions: Homo sapiens, MDA-MB-435, 48 h, read-out: Log10 GI50 (converted)
# [25] = test system: OVCAR-5; assay: SRB growth screen, ovarian cancer OVCAR-5; conditions: Homo sapiens, OVCAR-5, 48 h
# [26] = read-out: Log10 GI50 (converted)
# [27] = read-out: Log10 LC50 (converted)
smiles,measurement,setting,value
"CC(=O)O[C@H]1C(=O)[C@@]2(C)[C@H]([C@H](OC(=O)c3ccccc3)[C@]3(O)C[C@H](OC(=O)[C@H](O)[C@@H](NC(=O)c4ccccc4)c4ccccc4)C(C)=C1C3(C)C)[C@]1(OC(C)=O)CO[C@@H]1C[C@@H]2O [Paclitaxel, paclitaxel, reference compound]",GI50,[1]; [26],10 µM
same,CC50,[1]; [27],> 100 µM
same,IC (TGI),[1]; read-out: Log10 TGI,64.6 µM
same,CC50,[2]; [27],79.4 µM
same,IC (TGI),[2]; read-out: Log10 TGI,15.8 µM
same,CC50,[3],> 100 µM
same,CC50,[4]; [27],> 100 µM
same,IC (TGI),[4]; read-out: Log10 TGI,> 100 µM
same,CC50,[5]; [27],> 100 µM
same,IC (TGI),[5]; read-out: Log10 TGI,91.2 µM
same,CC50,[6]; [27],35.5 µM
same,IC (TGI),[6]; read-out: Log10 TGI,12.6 µM
same,CC50,[7]; [27],55 µM
same,IC (TGI),[7]; read-out: Log10 TGI,17 µM
same,CC50,[8]; [27],93.3 µM
same,IC (TGI),[8]; read-out: Log10 TGI,30.2 µM
same,CC50,[9]; [27],> 100 µM
same,IC (TGI),[9]; read-out: Log10 TGI,> 100 µM
same,CC50,[10]; [27],> 100 µM
same,IC (TGI),[10]; read-out: Log10 TGI,> 100 µM
same,CC50,[11]; [27],> 100 µM
same,IC (TGI),[11]; read-out: Log10 TGI,64.6 µM
same,GI50,[12]; [26],< 0.1 pM
same,CC50,[12]; [27],40.7 µM
same,CC50,[13]; [27],> 100 µM
same,IC (TGI),[13]; read-out: Log10 TGI,> 100 µM
same,CC50,[14]; [27],> 100 µM
same,IC (TGI),[14]; read-out: Log10 TGI,> 100 µM
same,CC50,[15]; [27],> 70.8 µM
same,IC (TGI),[15]; read-out: Log10 TGI,22.4 µM
same,CC50,[16]; [27],70.8 µM
same,IC (TGI),[16]; read-out: Log10 TGI,47.9 µM
same,GI50,[17]; [26],< 0.1 pM
same,CC50,[17]; [27],> 100 µM
same,IC (TGI),[17]; read-out: Log10 TGI,> 100 µM
same,GI50,[18]; [26],0.155 nM
same,CC50,[18]; [27],> 100 µM
same,CC50,[19]; [27],51.3 µM
same,IC (TGI),[19]; read-out: Log10 TGI,14.5 µM
same,CC50,[20],64.6 µM
same,CC50,[21],> 100 µM
same,CC50,[22],> 100 µM
same,CC50,[23]; [27],> 100 µM
same,IC (TGI),[23]; read-out: Log10 TGI,51.3 µM
same,GI50,[24],< 0.1 pM
same,CC50,[25]; [27],> 100 µM
same,IC (TGI),[25]; read-out: Log10 TGI,12 µM
